Results published in US4571393A, “3-Phenoxy-1-azetidinecarboxamides” (A. H. Robins Company, Incorporated, priority 1984, dated 1986).

Assays:
[1] = plasma half-life of elimination, two-way crossover oral/intravenous study in dogs; format: in vivo, mongrel dogs; settings: 10 mg/kg, average of oral and intravenous testing, dog plasma, HPLC; read-out: mean apparent terminal half-life of elimination (converted)
Description: Tests were conducted in order to compare the apparent half-life of elimination in the animal bloodstream of compounds of the present invention with that of the parent prior art compounds of which they are the metabolites as follows:
A two-way crossover study was conducted on male and female adult mongrel dogs. Each dog, after overnight fasting, received a single oral or intravenous dose of 10 mg/kg of test drug in 75% PEG in water and in such concentration that each dog received 1 ml of solution/kg of body weight. Oral doses were administered by using a glass syringe attached to a Levin® tube (size 18 French) which served as the stomach tube. […] Plasma levels of the test drug in the samples were determined by the HPLC method described by Osman, M. A.; Pinchbeck, F. M.; Cheng, L. K.; and Wright, G. J. described in the Journal of Chromatography, 336 (1981). […] The test drug being measured and the internal standard were then extracted from the plasma into a mixture of hexane, methylene chloride and butanol. […] The final solution was chromatographed on a Waters® column C18 reverse-phase system, the samples being analyzed in sequential order starting with the 0-hr sample (control) and proceeding to the 24 hr sample for the same animal. Duplicate assays were carried out for each sample and the mean value was recorded. […]

[2] = anticonvulsant activity against Metrazole (pentylenetetrazol) s.c. in mice, method of Swinyard; format: in vivo; settings: for Number Protected / Number Tested: 1/2 hr before 80 mg/kg s.c. Metrazole; for ED50: Mus musculus, ip, 80 mg/kg s.c. Metrazole, probit analysis, read-out: ED50 and (Confidence Limits)
Description: The procedure for testing the compounds for their anticonvulsant activity and comparison with prior art compounds is based on evaluation techniques published by Swinyard, E. A. in EPILEPSIA 10: 107-19 (1969) and in J. PHARMAC. EXPTL. THERAP. 106: 319-30 (1952) as explained in greater detail below.
A comparison was made of anti-convulsant activity of the compound of Example 1 and the prior art methyl analog (U.S. Pat. No. 4,226,861, Example 4) using metrazole as the convulsant by the method of Swinyard (See above citation).
Ninety-six adult female mice weighing 24-32 g were randomly assigned to dosage groups according to the method of Steel, R. G. D. and Torrie, J. H. (1960) in "Principles and Procedures of Statistics," McGraw-Hill Book Company, Inc., pp 99-100, pp 428-31. Each mouse was identified with a color code on its tail. The test compounds were administered as suspensions in 10 ml/kg mouse body weight of 0.5% aqueous methyl cellulose within 15 minutes of preparation of the suspension. Metrazole (pentylenetetrazol) was prepared as a solution in physiological saline. The mice were not fasted prior to the test. Eight mice were tested at each dosage level.
Each mouse received one dose of the test drug in the 0.5% aqueous methylcellulose or the control article (0.5% aqueous methylcellulose alone) intraperitoneally. Metrazole (80 mg/kg S.C.) was then given in a loose fold of skin on the back of the neck; i.e., 1/2 hr after the test compound or control article was given. Injections were given with a 1-ml glass tuberculin syringe with appropriate size hypodermic needle (27 gauge for solutions; 23 gauge for suspensions). All injections were given in a volume of 10 ml/kg mouse body weight. […] Anticonvulsant data were tabulated as the percent protection, i.e., [formula] The ED50 and (95% confidence limits) and potency ratio were ascertained by the computer-based probit analysis ascribed to Finney, D. J. (1964) Statistical Method in Biological Assay., 2nd Ed., New York. Hefner Publishing Co. Results are in Table A. Statistical analysis of the data indicated no significant difference in anti-convulsant potency between the two compounds.
(a) All mice were first injected with 10 ml/kg of 0.5% aqueous
methylcellulose intraperitoneally in which test compound was suspended if
(b) 80 mg/kg Metrazole in 10 ml saline of mouse body weight was
administered to all mice subcutaneously in a loose fold of skin on the
back of the neck onehalf hr. after administration of test compound.

SMILES | half-life [1] | Number Protected / Number Tested ([2]; 45 mg/kg i.p.) | Number Protected / Number Tested ([2]; 67 mg/kg i.p.) | Number Protected / Number Tested ([2]; 100 mg/kg i.p.) | Number Protected / Number Tested ([2]; 150 mg/kg i.p.) | Number Protected / Number Tested ([2]; 225 mg/kg i.p.) | ED50 [2] | Potency and 95% Confidence Limits ([2]; potency ratio, prior art compound 1.00, i.p.)
NC(=O)N1CC(Oc2cccc(C(F)(F)F)c2)C1 [Example 1, 3-[3-(Trifluoromethyl)phenoxy]-1-azetidinecarboxamide] | 2.4 ± 0.4 h | 1/8 | 2/8 | 4/8 | 5/8 | 8/8 | 99.2 mg/kg | 0.92
CNC(=O)N1CC(Oc2cccc(C(F)(F)F)c2)C1 [Example 4 of U.S. Pat. No. 4,226,861, N-methyl-3-(3-trifluoromethyl) phenoxy-1-azetidinecarboxamide, reference compound] | 1.3 ± 0.4 h | 1/8 | 2/8 | 3/8 | 8/8 | – | 90.9 mg/kg | –
